# Article PMC8097023, “Structures of a non-ribosomal peptide synthetase condensation domain suggest the basis of substrate selectivity” (Nature Communications, 2021)
# Columns and labels:
# [1] = molecular target: T1, PCP2-C3 didomain of fuscachelin NRPS FscG (Thermobifida fusca, UniProt Q47NR9); experiment: X-ray crystal structure, […] Å; type: binding; details: covalent; PPant on S2514 of PCP2; arm at C3 acceptor entrance, kept out of the active site by R2577
# T1 construct: gene Tfu_1867; PCP2-C3 didomain fragment; C3 = residues 2558-2999, PPant site S2514; His-SUMO tag (pOPIN-S) cleaved; made in E. coli BL21(DE3) entD-; monomeric, two copies in the asymmetric unit, PCP2 at the acceptor site of the other chain
# T1 sequence (Q47NR9 2481-3008): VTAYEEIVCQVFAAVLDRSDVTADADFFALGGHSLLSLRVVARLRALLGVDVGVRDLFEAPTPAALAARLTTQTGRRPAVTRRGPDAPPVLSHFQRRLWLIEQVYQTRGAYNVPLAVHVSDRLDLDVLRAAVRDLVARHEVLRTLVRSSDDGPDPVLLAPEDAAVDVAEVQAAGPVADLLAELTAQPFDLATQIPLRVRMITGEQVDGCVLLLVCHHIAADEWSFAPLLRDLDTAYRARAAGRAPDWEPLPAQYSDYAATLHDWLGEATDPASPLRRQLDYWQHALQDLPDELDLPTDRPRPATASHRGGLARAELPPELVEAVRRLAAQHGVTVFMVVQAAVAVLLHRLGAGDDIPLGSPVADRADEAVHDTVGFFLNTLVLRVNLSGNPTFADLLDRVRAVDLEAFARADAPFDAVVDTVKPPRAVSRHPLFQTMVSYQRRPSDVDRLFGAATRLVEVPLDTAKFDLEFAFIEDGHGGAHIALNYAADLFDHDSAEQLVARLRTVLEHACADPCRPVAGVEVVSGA
# [2] = molecular target: T2, PCP2-C3 didomain of fuscachelin NRPS FscG (Thermobifida fusca, UniProt Q47NR9, R2577G); experiment: X-ray crystal structure, […] Å; type: binding; details: covalent; PPant on S2514 of PCP2, fully extended through the acceptor channel into the C3 active site
# T2 construct: gene Tfu_1867; PCP2-C3 didomain fragment; C3 = residues 2558-2999, PPant site S2514; His-SUMO tag (pOPIN-S) cleaved; made in E. coli BL21(DE3) entD-; monomeric, two copies in the asymmetric unit, PCP2 at the acceptor site of the other chain
# T2 sequence (Q47NR9 entry or part of it R2577G): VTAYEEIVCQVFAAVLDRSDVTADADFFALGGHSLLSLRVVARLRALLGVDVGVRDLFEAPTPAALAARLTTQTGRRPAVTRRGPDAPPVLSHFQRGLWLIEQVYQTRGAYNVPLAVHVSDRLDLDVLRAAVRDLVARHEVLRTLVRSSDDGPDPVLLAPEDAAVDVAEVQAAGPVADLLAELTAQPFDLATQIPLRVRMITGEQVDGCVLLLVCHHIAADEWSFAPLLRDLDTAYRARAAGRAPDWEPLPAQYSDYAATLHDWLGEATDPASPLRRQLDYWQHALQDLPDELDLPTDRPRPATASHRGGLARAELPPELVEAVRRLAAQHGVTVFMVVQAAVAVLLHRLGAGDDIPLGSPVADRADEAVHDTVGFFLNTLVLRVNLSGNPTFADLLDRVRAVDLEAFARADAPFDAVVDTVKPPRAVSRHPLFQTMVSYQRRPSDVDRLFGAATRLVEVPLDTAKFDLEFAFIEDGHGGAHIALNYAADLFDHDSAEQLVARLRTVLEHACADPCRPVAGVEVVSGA
structure (smiles),measurement,setting,value
CC(C)(COP(=O)(O)O)[C@@H](O)C(=O)NCCC(=O)NCCS [PPant],"X-ray crystal structure, 2.2 Å",[1],"Having confirmed the presence of a PPant arm, we modeled this into the electron density"
same,"X-ray crystal structure, 2 Å",[2],"PPant moiety, which now fully extends thought the acceptor channel into the active site"
